# Results reported in PubChem BioAssay AID2060901 (Molecular Pharmacology Branch, DTP, NCI, 2025).
# System: 422866-222-R5-J1-PDC complex spheroids viability
# Experiment: Anticancer human tumor 422866-222-R5-J1-PDC patient-derived pancreatic adenocarcinoma cell line growth inhibition [RAS]
# Details: for IC50: curve of first compound; for viability, T/C: stronger effect = lower value
# Procedure, shortened: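 Tumour cells grown as complex spheroids with HUVEC endothelial cells and mesenchymal stem cells, treated with RAS pathway inhibitor combinations. Each agent spans half-log steps from near clinical Cmax, or 10 microM where Cmax is unknown.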
# 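Note: spheroids exposed to compounds for 7 days.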
# 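Throughout, for viability, T/C: 100% = DMSO vehicle control viability.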
smiles,measurement,setting,value
C=CC(=O)Nc1cc(Nc2nccc(-c3cn(C)c4ccccc34)n2)c(OC)cc1N(C)CCN(C)C + C=CC(=O)N1CCN(c2nc(OCC3CCCN3C)nc3c(F)c(-c4nc(N)cc(C)c4C(F)(F)F)c(Cl)cc23)C(C)C1,IC50,second compound 0.00316 µM,< 3.16 nM
same,IC50,second compound 0.01 µM,< 3.16 nM
same,IC50,second compound 0.0316 µM,< 3.16 nM
same,IC50,second compound 0.1 µM,< 3.16 nM
same,IC50,second compound 0.316 µM,< 3.16 nM
same,IC50,second compound 1 µM,< 3.16 nM
same,"viability, T/C","second compound 0.00316 µM, first compound 0.00316 µM",26.3%
same,"viability, T/C","second compound 0.00316 µM, first compound 0.01 µM",28.2%
same,"viability, T/C","second compound 0.00316 µM, first compound 0.0316 µM",29%
same,"viability, T/C","second compound 0.00316 µM, first compound 0.1 µM",28%
same,"viability, T/C","second compound 0.00316 µM, first compound 0.316 µM",18.5%
same,"viability, T/C","second compound 0.00316 µM, first compound 1 µM",12.4%
same,"viability, T/C","second compound 0.01 µM, first compound 0.00316 µM",34.1%
same,"viability, T/C","second compound 0.01 µM, first compound 0.01 µM",21.1%
same,"viability, T/C","second compound 0.01 µM, first compound 0.0316 µM",20.5%
same,"viability, T/C","second compound 0.01 µM, first compound 0.1 µM",19.8%
same,"viability, T/C","second compound 0.01 µM, first compound 0.316 µM",17.3%
same,"viability, T/C","second compound 0.01 µM, first compound 1 µM",12.3%
same,"viability, T/C","second compound 0.0316 µM, first compound 0.00316 µM",33.4%
same,"viability, T/C","second compound 0.0316 µM, first compound 0.01 µM",26.3%
same,"viability, T/C","second compound 0.0316 µM, first compound 0.0316 µM",21.5%
same,"viability, T/C","second compound 0.0316 µM, first compound 0.1 µM",16.5%
same,"viability, T/C","second compound 0.0316 µM, first compound 0.316 µM",17%
same,"viability, T/C","second compound 0.0316 µM, first compound 1 µM",12.2%
same,"viability, T/C","second compound 0.1 µM, first compound 0.00316 µM",22.8%
same,"viability, T/C","second compound 0.1 µM, first compound 0.01 µM",21.9%
same,"viability, T/C","second compound 0.1 µM, first compound 0.0316 µM",17.3%
same,"viability, T/C","second compound 0.1 µM, first compound 0.1 µM",17.6%
same,"viability, T/C","second compound 0.1 µM, first compound 0.316 µM",16.6%
same,"viability, T/C","second compound 0.1 µM, first compound 1 µM",11.9%
same,"viability, T/C","second compound 0.316 µM, first compound 0.00316 µM",19.7%
same,"viability, T/C","second compound 0.316 µM, first compound 0.01 µM",21.4%
same,"viability, T/C","second compound 0.316 µM, first compound 0.0316 µM",20%
same,"viability, T/C","second compound 0.316 µM, first compound 0.1 µM",21.8%
same,"viability, T/C","second compound 0.316 µM, first compound 0.316 µM",18.1%
same,"viability, T/C","second compound 0.316 µM, first compound 1 µM",14.2%
same,"viability, T/C","second compound 1 µM, first compound 0.00316 µM",20.5%
same,"viability, T/C","second compound 1 µM, first compound 0.01 µM",20.8%
same,"viability, T/C","second compound 1 µM, first compound 0.0316 µM",22.7%
same,"viability, T/C","second compound 1 µM, first compound 0.1 µM",20.9%
same,"viability, T/C","second compound 1 µM, first compound 0.316 µM",18.6%
same,"viability, T/C","second compound 1 µM, first compound 1 µM",12.4%
